Entries after “also recorded” stand apart in the source; their conditions may differ.
Assays:
[1] = test system: peptide-pulsed T2 cells; assay: IFN-gamma ELISPOT assay of CTLs induced in vitro with peptide-pulsed DCs; assay type: cell-based, human; conditions: CTLs from HLA-A*0201 positive donor, day 21, peptide-pulsed T2 versus no peptide control
From the text: Monocyte-derived dendritic cells (DCs) were used as antigen-presenting cells to induce cytotoxic T lymphocyte (CTL) responses against peptides presented on human leukocyte antigen (HLA). DCs were generated in vitro as described elsewhere (Nakahara S et al., Cancer Res 2003 Jul. 15, 63(14): 4112-8). Specifically, peripheral blood mononuclear cells isolated from a normal volunteer (HLA-A*0201 positive) by Ficoll-Plaque (Pharmacia) solution were separated by adherence to a plastic tissue culture dish (Becton Dickinson) so as to enrich them as the monocyte fraction. The monocyte-enriched population was cultured in the presence of 1000 U/ml of granulocyte-macrophage colony-stimulating factor (R&D System) and 1000 U/ml of interleukin (IL)-4 (R&D System) in AIM-V Medium (Invitrogen) containing 2% heat-inactivated autologous serum (AS). After 7 days of culture, the cytokine-induced DCs were pulsed with 20 micro-g/ml of each of the synthesized peptides in the presence of 3 micro-g/ml of beta 2-microglobulin for 3 hr at 37 degrees C. in AIM-V Medium. The generated cells appeared to express DC-associated molecules, such as CD80, CD83, CD86 and HLA class II, on their cell surfaces (data not shown). These peptide-pulsed DCs were then inactivated by X-irradiated (20 Gy) and mixed at a 1:20 ratio with autologous CD8+ T cells, obtained by positive selection with CD8 Positive Isolation Kit (Dynal). These cultures were set up in 48-well plates (Corning); each well contained 1.5×10^4 peptide-pulsed DCs, 3×10^5 CD8+ T cells and 10 ng/ml of IL-7 (R&D System) in 0.5 ml of AIM-V/2% AS medium. Three days later, these cultures were supplemented with IL-2 (CHIRON) to a final concentration of 20 IU/ml. On day 7 and 14, the T cells were further stimulated with the autologous peptide-pulsed DCs. The DCs were prepared each time by the same way described above. CTL was tested against peptide-pulsed T2 cells after the 3rd round of peptide stimulation on day 21 (Tanaka H et al., Br J Cancer Jan. 5, 2001, 84(1): 94-9; Umano Y et al., Br J Cancer Apr. 20, 2001, 84(8): 1052-7; Uchida N et al., Clin Cancer Res Dec. 15, 2004, 10(24): 8577-86; Suda T et al., Cancer Sci May 2006, 97(5): 411-9; Watanabe T et al., Cancer Sci August 2005, 96(8): 498-506).
(§1) Specifically, peptide-pulsed T2 (1×10^4/well) was prepared as stimulator cells. Cultured cells in 48 wells were used as responder cells. IFN-gamma ELISPOT assay and IFN-gamma ELISA assay were performed under manufacture procedure.

[2] = test system: peptide-pulsed T2 cells; assay: IFN-gamma ELISA assay of expanded CTL lines; assay type: cell-based, human; conditions: target cells pulsed with peptide versus without peptide pulse
Description: CTLs were expanded in culture using the method similar to the one described by Riddell et al. (Walter E A et al., N Engl J Med Oct. 19, 1995, 333(16): 1038-44; Riddell S R et al., Nat Med February 1996, 2(2): 216-23). A total of 5×10^4 CTLs were suspended in 25 ml of AIM-V/5% AS medium with 2 kinds of human B-lymphoblastoid cell lines, inactivated by Mitomycin C, in the presence of 40 ng/ml of anti-CD3 monoclonal antibody (Pharmingen). One day after initiating the cultures, 120 IU/ml of IL-2 were added to the cultures. The cultures were fed with fresh AIM-V/5% AS medium containing 30 IU/ml of IL-2 on days 5, 8 and 11 (Tanaka H et al., Br J Cancer Jan. 5, 2001, 84(1): 94-9; Umano Y et al., Br J Cancer Apr. 20, 2001, 84(8): 1052-7; Uchida N et al., Clin Cancer Res Dec. 15, 2004, 10(24): 8577-86; Suda T et al., Cancer Sci May 2006, 97(5): 411-9; Watanabe T et al., Cancer Sci August 2005, 96(8): 498-506).
as §1

[3] = test system: peptide-pulsed T2 cells; assay: IFN-gamma ELISA assay of CTL clones established by limiting dilution; assay type: cell-based, human; conditions: target cells pulsed with peptide versus without peptide pulse
Description: The dilutions were made to have 0.3, 1, and 3 CTLs/well in 96 round-bottomed micro titer plate (Nalge Nunc International). CTLs were cultured with 1×10^4 cells/well of 2 kinds of human B-lymphoblastoid cell lines, 30 ng/ml of anti-CD3 antibody, and 125 U/ml of IL-2 in a total of […] of AIM-V Medium containing 5% AS. 50 micro-l/well of IL-2 were added to the medium 10 days later so to reach a final concentration of 125 U/ml IL-2. CTL activity was tested on the 14th day, and CTL clones were expanded using the same method as described above (Uchida N et al., Clin Cancer Res Dec. 15, 2004, 10(24): 8577-86; Suda T et al., Cancer Sci May 2006, 97(5): 411-9; Watanabe T et al., Cancer Sci August 2005, 96(8): 498-506).
as §1

[4] = test system: COS7 cells transfected with C18orf54 and HLA-A*0201; assay: Specific CTL activity against target cells expressing C18orf54 and HLA-A*0201; assay type: cell-based, African green monkey; conditions: CTL clone
From the text: The cDNA encoding an open reading frame of target genes or HLA-A*0201 was amplified by PCR. The PCR-amplified product was cloned into the expression vector. The plasmids were transfected into COS7, which is the target genes and HLA-A*0201-null cell line, using lipofectamine 2000 (Invitrogen) according to the manufacturer's recommended procedures. After 2 days from transfection, the transfected cells were harvested with versene (Invitrogen) and used as the target cells (5×10^4 cells/well) for CTL activity assay.
The established CTL lines and clones raised against each peptide were examined for the ability to recognize target cells that express C18orf54 and HLA-A*0201 molecule. […] COS7 cells transfected with either full length of C18orf54 or HLA-A*0201 were prepared as the controls.

Row | Sequence | Peptide specific CTL activity: IFN-gamma production (ELISPOT) [1] | IFN-gamma production of CTL lines (ELISA) [2] | further results
1 | KLYRSASQA [SEQ ID NO: 14] | potent IFN-gamma production |  | 
2 | QLKESMIPI [SEQ ID NO: 10] | potent IFN-gamma production |  | 
3 | QMLFNLQAV [SEQ ID NO: 2] | potent IFN-gamma production | potent IFN-gamma production | 
4 | SIPDFKYPV [SEQ ID NO: 4] | potent IFN-gamma production | potent IFN-gamma production | IFN-gamma production of CTL clones (ELISA) ([3]; listed as C18orf54-A02-9-255): potent IFN-gamma production
5 | SLQKALHHL [SEQ ID NO: 5] | potent IFN-gamma production | potent IFN-gamma production | Specific CTL activity against COS7 cells expressing both C18orf54 and HLA-A*0201 ([4]; COS7 transfected with both full length C18orf54 and HLA-A*0201, listed as C18orf54-A02-9-507): potent CTL activity; also recorded: specific CTL activity; Specific CTL activity against control COS7 cells ([4]; COS7 transfected with either C18orf54 or HLA-A*0201 alone): no significant specific CTL activity; IFN-gamma production of CTL clones (ELISA) ([3]; listed as C18orf54-A02-9-507): potent IFN-gamma production
6 | SLSDDKELV [SEQ ID NO: 3] | potent IFN-gamma production |  | 
7 | SMIPITRSL [SEQ ID NO: 1] |  |  | Peptide specific CTL activity: IFN-gamma production (ELISPOT) ([1]; listed as C18orf54-A02-9-500): not observed
8 | TSIPDFKYPV [SEQ ID NO: 32] | potent IFN-gamma production |  | 
9 | VTFKSPVPV [SEQ ID NO: 9] | potent IFN-gamma production |  | 
10 | WLTSQKSDL [SEQ ID NO: 20] | potent IFN-gamma production |  | 
